# From patent US7612087B2, “Heterocyclic compounds as inhibitors of beta-lactamases” (Novexel, priority 2002, dated 2009)
# Columns and labels:
# Serratia 301HT6 = test: MIC, micro-dilution in liquid medium, β-lactamine with product at 5 mg/l; assay type: cell-based; details: compound at 5 mg/l; Trial 10, 301HT6 Serratia; 24 hours at 37° C.
# How it was run: (§1)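 Strains were seeded into liquid-medium dilutions of β-lactamine, each supplemented with a fixed 5 mg/l of test compound, and held 24 hours at 37° C in a heating chamber. Minimal inhibitory concentration was the level at which bacterial development was wholly absent.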
# E. coli 250HT26 (SHV1) = test: as above; assay type: cell-based; details: compound at 5 mg/l; Trial 6, 250HT26 SHV1; 24 hours at 37° C.
# How it was run: as §1
# [1] = tested on: E. coli 250HT23 (Class D); test: as above; assay type: cell-based; details: compound at 5 mg/l; Trial 8, 250HT23 Class D; 24 hours at 37° C.
# How it was run: as §1
# E. coli 250HT21 (Tem1) = test: as above; assay type: cell-based; details: compound at 5 mg/l; Trial 2, 250HT21 Tem1; 24 hours at 37° C.
# How it was run: as §1
# E. coli 250BE1 (SHV4) = test: as above; assay type: cell-based; details: compound at 5 mg/l; Trial 7, 250BE1 SHV4; 24 hours at 37° C.
# How it was run: as §1
# E. coli 250SJ1 (Tem7) = test: as above; assay type: cell-based; details: compound at 5 mg/l; Trial 5, 250SJ1 Tem7; 24 hours at 37° C.
# How it was run: as §1
# [2] = tested on: E. cloacae 293HT6 (Class C); test: as above; assay type: cell-based; details: compound at 5 mg/l; Trial 9, 293HT6 Class; 24 hours at 37° C.
# How it was run: as §1
# [3] = tested on: P. aeruginosa 391HT8 (PSE); test: as above; assay type: cell-based; details: compound at 5 mg/l; Trial 12, 391HT8 PSE; 24 hours at 37° C.
# How it was run: as §1
# [4] = tested on: P. aeruginosa 391HT7 (PSE); test: as above; assay type: cell-based; details: compound at 5 mg/l; Trial 11, 391HT7 PSE; 24 hours at 37° C.
# How it was run: as §1
# [5] = tested on: S. aureus 011GO66 (PeniR); test: as above; assay type: cell-based; details: compound at 5 mg/l; Trial 1, 011GO66 peniR; 24 hours at 37° C.
# How it was run: as §1
# E. coli 250HT22 (Tem2) = test: as above; assay type: cell-based; details: compound at 5 mg/l; Trial 3, 250HT22 Tem2; 24 hours at 37° C.
# How it was run: as §1
# β-lactamase P99 = molecular target: T1, β-lactamase P99 (Enterobacter cloacae, UniProt P05364); test: biochemical; details: 100 μM Nitrocefin, 50 mM sodium phosphate buffer pH7.0, 37° C.; read-out: IC50 nM/P99
# T1 construct: The β-lactamases are isolated from bacterial strains which are resistant to penicillins and cephalosporins; endogenous in cells; host or cells: Enterobacter cloacae 293HT6 (natural producer; French-press lysate, 100,000 g supernatant)
# How it was run: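 P99 β-lactamase, taken from the soluble fraction of an Enterobacter cloacae 293HT6 lysate, was assayed at 37° C. in 50 mM sodium phosphate buffer pH7.0 with 100 μM Nitrocefin as the chromogenic substrate. Hydrolysis was followed kinetically at 485 nm at initial speed, with and without a 5 mn enzyme–inhibitor preincubation. Inhibitors were tested at 6 or 8 concentrations in duplicate, and IC50 was fitted with GraFit.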
# β-lactamase TEM1 = molecular target: T2, β-lactamase TEM1 (Escherichia coli, UniProt P62593); test: Inhibition of isolated β-lactamase Tem-1 (Nitrocefin hydrolysis); assay type: biochemical, E.coli 250HT21; details: 100 μM Nitrocefin, 50 mM sodium phosphate buffer pH7.0, 37° C.
# T2 construct: The β-lactamases are isolated from bacterial strains which are resistant to penicillins and cephalosporins; endogenous in cells; host or cells: E. coli 250HT21 (natural producer; French-press lysate, 100,000 g supernatant)
# How it was run: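 TEM-1 from soluble extract of E. coli 250HT21, normalized enzyme, 100 μM Nitrocefin in 50 mM sodium phosphate pH 7.0 at 37 °C. Initial-rate hydrolysis read kinetically at 485 nm, with and without 5 min enzyme–inhibitor preincubation. CI50 from 6 or 8 concentrations in duplicate.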
# E. coli 250CF1 (Tem3) = test: microbe, parasite or virus in culture; assay type: cell-based; details: compound at 5 mg/l; Trial 4, 250CF1 Tem3; 24 hours at 37° C.
# How it was run: as §1
# T1 sequence (P05364 21-381): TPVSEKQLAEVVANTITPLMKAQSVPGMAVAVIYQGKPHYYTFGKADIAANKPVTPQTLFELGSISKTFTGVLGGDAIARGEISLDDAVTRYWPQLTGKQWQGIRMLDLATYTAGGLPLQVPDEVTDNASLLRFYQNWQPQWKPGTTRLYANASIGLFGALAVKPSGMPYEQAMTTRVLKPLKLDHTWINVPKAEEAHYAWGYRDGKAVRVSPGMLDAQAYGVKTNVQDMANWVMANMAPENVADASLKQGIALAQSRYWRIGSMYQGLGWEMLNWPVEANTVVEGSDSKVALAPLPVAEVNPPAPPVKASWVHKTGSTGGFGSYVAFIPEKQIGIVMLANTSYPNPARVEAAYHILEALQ
# T2 sequence (P62593 24-286 limits assumed): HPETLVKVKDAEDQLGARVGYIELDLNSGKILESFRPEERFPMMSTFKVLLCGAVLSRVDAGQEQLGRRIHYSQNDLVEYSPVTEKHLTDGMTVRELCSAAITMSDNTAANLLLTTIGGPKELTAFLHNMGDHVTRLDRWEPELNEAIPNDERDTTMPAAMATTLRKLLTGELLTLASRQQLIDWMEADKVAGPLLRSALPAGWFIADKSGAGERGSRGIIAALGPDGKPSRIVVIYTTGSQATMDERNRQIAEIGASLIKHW
SMILES,MIC of Piperacillin in combination with the compound (Serratia 301HT6) [µg/mL],MIC of Piperacillin in combination with the compound (E. coli 250HT26 (SHV1)) [µg/mL],MIC of Piperacillin in combination with the compound [1] [µg/mL],MIC of Piperacillin in combination with the compound (E. coli 250HT21 (Tem1)) [µg/mL],MIC of Piperacillin in combination with the compound (E. coli 250BE1 (SHV4)) [µg/mL],MIC of Piperacillin in combination with the compound (E. coli 250SJ1 (Tem7)) [µg/mL],MIC of Piperacillin in combination with the compound [2] [µg/mL],MIC of Piperacillin in combination with the compound [3] [µg/mL],MIC of Piperacillin in combination with the compound [4] [µg/mL],MIC of Piperacillin in combination with the compound [5] [µg/mL],MIC of Piperacillin in combination with the compound (E. coli 250HT22 (Tem2)) [µg/mL],IC50 (β-lactamase P99) [nM],IC50 (β-lactamase TEM1) [nM],MIC of Piperacillin in combination with the compound (E. coli 250CF1 (Tem3)) [µg/mL]
"NC(=O)C(NC(=O)[C@H]1CC[C@@H]2CN1C(=O)N2OS(=O)(=O)[O-])c1ccccc1.[Na+] (relative stereo) [Example 47, sodium salt of trans-N-(2-amino-2-oxo-1-phenylethyl)-7-oxo-6-(sulphooxy)-1,6-diazabicyclo[3.2.1]octane-2-carboxamide]",1.2,2.5,10,2.5,5,40,>40,>40,>40,0.6,20,43,18,5
"O=C(OCCc1ccccn1)[C@H]1CC[C@@H]2CN1C(=O)N2OS(=O)(=O)[O-].[Na+] (relative stereo) [Example 50, sodium salt of trans 2-(2-pyridinyl)ethyl 7-oxo-6-(sulphooxy)-1,6-diazabicyclo[3.2.1]octane-2-carboxylate]",0.6,40,40,2.5,40,40,>40,>40,>40,1.2,40,150,18,5
